From ChEMBL document CHEMBL5331104, “Discovery of BRD4-HDAC Dual Inhibitors with Improved Fungal Selectivity and Potent Synergistic Antifungal Activity against Fluconazole-Resistant Candida albicans” (J Med Chem, 2023)
≈ marks a conversion by molar mass, not a printed value. Calls of active or inactive are those of the source. The rule behind the calls is not given here.

Key:
Histone deacetylase 1 = Histone deacetylase 1 (Homo sapiens, UniProt Q13547); experiment: Inhibition of full-length recombinant human HDAC1 (1 to 482 residues) expressed in baculovirus infected insect cells using […] as substrate incubated for 30 mins by fluorescence based analysis; parameters: species or system Insect cell
Sequence of Histone deacetylase 1 (Q13547 whole entry, the tested form may be a part): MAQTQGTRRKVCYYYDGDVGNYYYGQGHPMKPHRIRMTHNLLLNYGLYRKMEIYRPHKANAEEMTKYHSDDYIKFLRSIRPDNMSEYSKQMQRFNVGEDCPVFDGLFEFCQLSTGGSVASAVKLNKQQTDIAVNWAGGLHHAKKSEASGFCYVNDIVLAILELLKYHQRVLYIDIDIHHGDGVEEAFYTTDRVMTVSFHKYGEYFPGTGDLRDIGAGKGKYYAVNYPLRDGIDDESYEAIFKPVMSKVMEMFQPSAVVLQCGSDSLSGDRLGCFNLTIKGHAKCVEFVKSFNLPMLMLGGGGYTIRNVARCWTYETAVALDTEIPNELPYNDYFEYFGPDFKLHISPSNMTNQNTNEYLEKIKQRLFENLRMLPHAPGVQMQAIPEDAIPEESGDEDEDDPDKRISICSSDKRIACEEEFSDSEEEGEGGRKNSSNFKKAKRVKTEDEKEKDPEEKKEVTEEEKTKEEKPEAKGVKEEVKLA

Nakaseomyces glabratus [1] = experiment: Antifungal activity against Candida glabrata 4408 assessed as microbial growth inhibition; type: functional
HL-60 = experiment: Antiproliferative activity against human HL-60 cells incubated for 48 hrs by CCK8 assay; type: functional, cell-based; conditions: HL-60, 48 h
Histone deacetylase = experiment: Inhibition of total HDAC in human HUVEC cells using Boc-Lys(Ac)-AMC as substrate preincubated for 12 hrs followed by substrate addition measured after 6 hrs by microtiter plate reader analysis; type: cell-based
K562 = experiment: Antiproliferative activity against human K562 cells incubated for 48 hrs by CCK8 assay; type: functional, cell-based; conditions: K562, 48 h
HEL = experiment: Antiproliferative activity against human HEL cells incubated for 48 hrs by CCK8 assay; type: functional, cell-based
Candida albicans [2] = experiment: Antifungal activity against Candida albicans SC5314 assessed as fungal growth inhibition incubated for 24 hrs by broth dilution method; type: functional
Cryptococcus neoformans [3] = experiment: Antifungal activity against Cryptococcus neoformans H99 assessed as fungal growth inhibition incubated for 24 hrs by broth dilution method; type: functional
Candida albicans [4] = experiment: microbe, parasite or virus in culture; type: functional; conditions: 0304103
Description: Antifungal activity against Candida albicans 0304103 assessed as microbial growth inhibition

Candida albicans [5] = experiment: microbe, parasite or virus in culture; type: functional; conditions: 0304103, time 24 hrs
Description: Synergetic antifungal activity against Candida albicans 0304103 assessed as microbial growth inhibition incubated for 24 hrs in the presence of fluconazole by checkerboard microdilution method

Candida albicans [6] = type: functional, 0304103; conditions: time 24 hrs
Description: Synergetic antifungal activity against Candida albicans 0304103 assessed as fractional inhibitory concentration index incubated for 24 hrs in the presence of fluconazole by checkerboard microdilution method

[Candida] auris [7] = Antifungal activity against Candida auris 0029 assessed as microbial growth inhibition; type: functional; conditions: Candidozyma auris
[Candida] auris [8] = Antifungal activity against Candida auris 0030 assessed as microbial growth inhibition; type: functional; conditions: Candidozyma auris
Candida albicans [9] = experiment: Antifungal activity against Candida albicans 9172 assessed as microbial growth inhibition; type: functional
Candida albicans [10] = experiment: Antifungal activity against Candida albicans 10061 assessed as microbial growth inhibition; type: functional
Candida albicans [11] = experiment: Antifungal activity against Candida albicans 9884 assessed as microbial growth inhibition; type: functional
Cryptococcus neoformans [12] = experiment: Antifungal activity against Cryptococcus neoformans 011405 assessed as microbial growth inhibition; type: functional
[Candida] auris [13] = Synergetic antifungal activity against Candida auris 0029 assessed as microbial growth inhibition incubated for 24 hrs in the presence of fluconazole by checkerboard microdilution method; type: functional; conditions: Candidozyma auris
[Candida] auris [14] = Synergetic antifungal activity against Candida auris 0030 assessed as microbial growth inhibition incubated for 24 hrs in the presence of fluconazole by checkerboard microdilution method; type: functional; conditions: Candidozyma auris
Candida albicans [15] = experiment: Synergetic antifungal activity against Candida albicans 9172 assessed as microbial growth inhibition incubated for 24 hrs in the presence of fluconazole by checkerboard microdilution method; type: functional
Candida albicans [16] = experiment: Synergetic antifungal activity against Candida albicans 10061 assessed as microbial growth inhibition incubated for 24 hrs in the presence of fluconazole by checkerboard microdilution method; type: functional
Candida albicans [17] = experiment: Synergetic antifungal activity against Candida albicans 9884 assessed as microbial growth inhibition incubated for 24 hrs in the presence of fluconazole by checkerboard microdilution method; type: functional
Nakaseomyces glabratus [18] = experiment: Synergetic antifungal activity against Candida glabrata 4408 assessed as microbial growth inhibition incubated for 24 hrs in the presence of fluconazole by checkerboard microdilution method; type: functional
Cryptococcus neoformans [19] = experiment: Synergetic antifungal activity against Cryptococcus neoformans 011405 assessed as microbial growth inhibition incubated for 24 hrs in the presence of fluconazole by checkerboard microdilution method; type: functional
[Candida] auris [20] = Synergetic antifungal activity against Candida auris 0029 assessed as fractional inhibitory concentration index incubated for 24 hrs in the presence of fluconazole by checkerboard microdilution method; type: functional, Candidozyma auris
[Candida] auris [21] = Synergetic antifungal activity against Candida auris 0030 assessed as fractional inhibitory concentration index incubated for 24 hrs in the presence of fluconazole by checkerboard microdilution method; type: functional, Candidozyma auris
Candida albicans [22] = experiment: Synergetic antifungal activity against Candida albicans 9172 assessed as fractional inhibitory concentration index incubated for 24 hrs in the presence of fluconazole by checkerboard microdilution method; type: functional
Candida albicans [23] = experiment: Synergetic antifungal activity against Candida albicans 10061 assessed as fractional inhibitory concentration index incubated for 24 hrs in the presence of fluconazole by checkerboard microdilution method; type: functional
Candida albicans [24] = experiment: Synergetic antifungal activity against Candida albicans 9884 assessed as fractional inhibitory concentration index incubated for 24 hrs in the presence of fluconazole by checkerboard microdilution method; type: functional
Nakaseomyces glabratus [25] = experiment: Synergetic antifungal activity against Candida glabrata 4408 assessed as fractional inhibitory concentration index incubated for 24 hrs in the presence of fluconazole by checkerboard microdilution method; type: functional
Cryptococcus neoformans [26] = experiment: Synergetic antifungal activity against Cryptococcus neoformans 011405 assessed as fractional inhibitory concentration index incubated for 24 hrs in the presence of fluconazole by checkerboard microdilution method; type: functional
Candida albicans [27] = experiment: Antibiofilm activity against FLC-resistant Candida albicans 0304103 assessed as reduction in fungal growth at 32 ug/mL and measured for 48 hrs by time-growth curve assay; type: functional, organism-based; conditions: dose 32.0 µg/ml
Candida albicans [28] = experiment: Synergistic antibiofilm activity against FLC-resistant Candida albicans 0304103 assessed as inhibition of fungal growth at 32 ug/mL and measured for 48 hrs in the presence of fluconazole by time-growth curve assay; type: functional; parameters: scale not given: the % may be the effect or the level left; conditions: dose 32 µg/ml
Candida albicans [29] = experiment: Antibiofilm activity against FLC-resistant Candida albicans 0304103 assessed as inhibition of biofilm formation at 64 ug/mL incubated for 24 hrs by XTT reduction assay; type: functional, organism-based; conditions: dose 64.0 µg/ml
Candida albicans [30] = experiment: Synergistic antibiofilm activity against FLC-resistant Candida albicans 0304103 assessed as inhibition of biofilm formation at 64 ug/mL incubated for 24 hrs in presence of by XTT reduction assay relative to control; type: functional; parameters: scale not given: the % may be the effect or the level left; conditions: dose 64 µg/ml
Candida albicans [31] = experiment: Antifungal activity against Candida albicans 0304103 assessed as reduction in yeast to hypha transition at 32 ug/mL incubated for 2 hrs by inverse fluorescence microscopy; type: functional, organism-based; conditions: dose 32.0 µg/ml
Candida albicans [32] = experiment: Synergistic antifungal activity against Candida albicans 0304103 assessed as reduction in yeast to hypha transition at 32 ug/mL incubated for 2 hrs in the presence of fluconazole by inverse fluorescence microscopy; type: functional, organism-based; conditions: dose 32.0 µg/ml
Candida albicans [33] = experiment: Downregulation of ERG11 expression in Candida albicans 0304103 at 32 ug/mL incubated for 24 hrs in the presence of fluconazole by RT q-PCR analysis; type: functional; conditions: dose 32.0 µg/ml
Candida albicans [34] = experiment: Downregulation of ERG11 expression in Candida albicans 0304103 at 32 ug/mL incubated for 24 hrs by RT q-PCR analysis; type: functional; conditions: dose 32.0 µg/ml
Candida albicans [35] = experiment: Downregulation of CDR1 expression in Candida albicans 0304103 at 32 ug/mL incubated for 24 hrs by RT q-PCR analysis; type: functional; conditions: dose 32.0 µg/ml
Candida albicans [36] = experiment: Downregulation of CDR2 expression in Candida albicans 0304103 at 32 ug/mL incubated for 24 hrs by RT q-PCR analysis; type: functional; conditions: dose 32.0 µg/ml
Candida albicans [37] = experiment: Downregulation of MDR1 expression in Candida albicans 0304103 at 32 ug/mL incubated for 24 hrs by RT q-PCR analysis; type: functional; conditions: dose 32.0 µg/ml
Candida albicans [38] = experiment: Downregulation of CDR1 expression in Candida albicans 0304103 at 32 ug/mL incubated for 24 hrs in the presence of fluconazole by RT q-PCR analysis; type: functional; conditions: dose 32.0 µg/ml
Candida albicans [39] = experiment: Downregulation of CDR2 expression in Candida albicans 0304103 at 32 ug/mL incubated for 24 hrs in the presence of fluconazole by RT q-PCR analysis; type: functional; conditions: dose 32.0 µg/ml
Candida albicans [40] = experiment: Downregulation of MDR1 expression in Candida albicans 0304103 at 32 ug/mL incubated for 24 hrs in the presence of fluconazole by RT q-PCR analysis; type: functional; conditions: dose 32.0 µg/ml
Candida albicans [41] = experiment: Downregulation of GCA1 expression in Candida albicans 0304103 at 32 ug/mL incubated for 24 hrs by RT q-PCR analysis; type: functional; conditions: dose 32.0 µg/ml
Candida albicans [42] = experiment: Downregulation of GCA1 expression in Candida albicans 0304103 at 32 ug/mL incubated for 24 hrs in the presence of fluconazole by RT q-PCR analysis; type: functional; conditions: dose 32.0 µg/ml
Candida albicans [43] = experiment: Downregulation of ADH5 expression in Candida albicans 0304103 at 32 ug/mL incubated for 24 hrs by RT q-PCR analysis; type: functional; conditions: dose 32.0 µg/ml
Candida albicans [44] = experiment: Downregulation of ADH5 expression in Candida albicans 0304103 at 32 ug/mL incubated for 24 hrs in the presence of fluconazole by RT q-PCR analysis; type: functional; conditions: dose 32.0 µg/ml
Candida albicans [45] = experiment: Antifungal activity against Candida albicans 0304103 infected in ICR mouse assessed as reduction in kidney fungal burden at 10 mg/kg, ip administered for 5 consecutive days; type: functional, organism-based; conditions: time 5.0 day
Candida albicans [46] = experiment: Antifungal activity against Candida albicans 0304103 infected in ICR mouse assessed as decrease in kidney fungal burden at 10 mg/kg, ip administered for 5 consecutive days in the presence of fluconazole; type: functional, organism-based; conditions: time 5.0 day
in vitro = conditions: human, HUVEC cells
Description: Cytotoxicity against HUVECs assessed as inhibition of cell growth incubated for 48 hrs by CCK8 assay

## Cc1nnc2n1-c1sc3c(c1C(c1ccc(Cl)cc1)=N[C@H]2CC(=O)NCc1ccc(C(=O)NO)cc1)CCCC3
Histone deacetylase 1
  IC50: 2.4 µM
Nakaseomyces glabratus [1]
  MIC80: 8 µg/mL (≈ 13.9 µM)
HL-60
  IC50: 3.1 µM
Histone deacetylase
  IC50: 4.3 µM
K562
  IC50: > 10 µM
HEL
  IC50: 7.2 µM
Candida albicans [2]
  MIC80: > 64 µg/mL
Cryptococcus neoformans [3]
  MIC80: 8 µg/mL (≈ 13.9 µM)
Candida albicans [4]
  MIC80: > 64 µg/mL
Candida albicans [5]
  MIC80: 2 µg/mL (≈ 3.48 µM)
Candida albicans [6]
  fractional inhibitory concentration index (FICI): 0.063
[Candida] auris [7]
  MIC80: > 64 µg/mL
[Candida] auris [8]
  MIC80: > 64 µg/mL
Candida albicans [9]
  MIC80: > 64 µg/mL
Candida albicans [10]
  MIC80: > 64 µg/mL
Candida albicans [11]
  MIC80: > 64 µg/mL
Cryptococcus neoformans [12]
  MIC80: 32 µg/mL (≈ 55.6 µM)
[Candida] auris [13]
  MIC80: 32 µg/mL
[Candida] auris [14]
  MIC80: 32 µg/mL
Candida albicans [15]
  MIC80: 4 µg/mL
Candida albicans [16]
  MIC80: 2 µg/mL
Candida albicans [17]
  MIC80: 4 µg/mL
Nakaseomyces glabratus [18]
  MIC80: 2 µg/mL
Cryptococcus neoformans [19]
  MIC80: 2 µg/mL
[Candida] auris [20]
  fractional inhibitory concentration index (FICI): 1.5
[Candida] auris [21]
  fractional inhibitory concentration index (FICI): 1.5
Candida albicans [22]
  fractional inhibitory concentration index (FICI): 0.07
Candida albicans [23]
  fractional inhibitory concentration index (FICI): 0.047
Candida albicans [24]
  fractional inhibitory concentration index (FICI): 0.19
Nakaseomyces glabratus [25]
  fractional inhibitory concentration index (FICI): 0.28
Cryptococcus neoformans [26]
  fractional inhibitory concentration index (FICI): 0.31
Candida albicans [27]
  Activity: inactive
Candida albicans [28]
  Activity: 100%
Candida albicans [29]
  Activity: inactive
Candida albicans [30]
  Activity: 80%
Candida albicans [31]
  Activity: inactive
Candida albicans [32]
  Activity: Active
Candida albicans [33]
  Activity: Active
Candida albicans [34]
  Activity: Active
Candida albicans [35]
  Activity: Active
Candida albicans [36]
  Activity: Active
Candida albicans [37]
  Activity: Active
Candida albicans [38]
  Activity: Active
Candida albicans [39]
  Activity: Active
Candida albicans [40]
  Activity: Active
Candida albicans [41]
  Activity: Active
Candida albicans [42]
  Activity: Active
Candida albicans [43]
  Activity: Active
Candida albicans [44]
  Activity: Active
Candida albicans [45]
  Activity: inactive
Candida albicans [46]
  Activity: Active
In vitro
  IC50 at 48 h: 18 µM
